Results taken from patent publication EP1304101A1, “Composition and method for use of pyridinium derivatives in cosmetic and therapeutic applications” (Torrent Pharmaceuticals Ltd, priority 2001, dated 2003).

What was measured:
[1] = target: T1, AGE-BSA (Bos taurus, UniProt P02769); assay: In-vitro AGE breaking activity by ELISA (16 weeks AGE-BSA incubated with test compound); assay type: biochemical, bovine; details: for % Breakage: 37°C, 24 hours; for AGE breaking activity compared to PTB / potency (AGE breaking activity compared to PTB): comparison in words based on Table 2
T1 construct: Bovine serum albumin (fraction V) (BSA); from tissue
T1 sequence (P02769 25-607): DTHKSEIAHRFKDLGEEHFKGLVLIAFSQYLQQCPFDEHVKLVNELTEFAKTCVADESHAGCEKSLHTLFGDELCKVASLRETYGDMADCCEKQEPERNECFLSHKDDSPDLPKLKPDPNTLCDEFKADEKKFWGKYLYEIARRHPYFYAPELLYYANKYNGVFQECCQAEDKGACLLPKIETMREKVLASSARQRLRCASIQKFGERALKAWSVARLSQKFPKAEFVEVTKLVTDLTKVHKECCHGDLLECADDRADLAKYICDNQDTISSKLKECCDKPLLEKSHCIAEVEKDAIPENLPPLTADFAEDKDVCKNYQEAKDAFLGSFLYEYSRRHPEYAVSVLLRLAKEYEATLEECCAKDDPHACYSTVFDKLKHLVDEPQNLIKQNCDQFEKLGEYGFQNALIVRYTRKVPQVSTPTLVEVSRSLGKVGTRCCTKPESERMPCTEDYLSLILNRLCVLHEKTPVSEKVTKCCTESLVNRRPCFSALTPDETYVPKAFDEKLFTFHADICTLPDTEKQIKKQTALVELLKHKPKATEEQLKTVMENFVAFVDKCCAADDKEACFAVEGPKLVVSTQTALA
Experimental: AGE breaking activity has been confirmed by the screening procedure as mentioned below: • Materials: • Bovine serum albumin (fraction V) (BSA) • Glucose, analytical grade • Phosphate buffered saline (PBS) • Equipment: • Microplate ELISA Reader - Spectramax Plus (Molecular Devices, USA) • Microplate washer, (Bio -Tec Instruments, USA) • pH meter • Methods of experiment: Elisa (Enzyme Linked Immunosorbent Assay) 160 mg/ml of protein, bovine serum albumin, BSA and 1.6M glucose sugar were dissolved in phosphate buffered saline, PBS. Sodium azide was added at 0.02% concentration as a preservative. The solution was filtered asceptically through a 0.22 µM filter and kept for aging at 37°C for 16 weeks. After 16 weeks the solution was dialyzed against PBS, aliquoted and stored at - 20°C.
To determine the AGE breaking activity, 10 µg/ml of the 16 weeks AGE-BSA was incubated with different concentrations of the test compounds at 37°C for 24 hours and AGE breaking activity of the test compounds by ELISA was determined.
Different concentrations of 16 weeks AGE-BSA were coated on a microtitre plate as standard. Each concentration is coated in triplicates. • 2. The test samples were coated on microtitre plate at a concentration of 5 ng. to 20 ng per well in triplicates. • 3. The plate was incubated at 37°C for one hour. • 4. After incubation the plate was washed with PBST (PBS with 0.05% Tween 20). • 5. Blocking with 5% skimmed milk in PBS at 37°C for one hour was done. • 6. The plate was washed with PBST. • 7. Primary antibody against AGE-BSA was added and the plate is incubated at 37°C for one hour. • 8. The plate was washed with PBST • 9. Secondary antibody anti rabbit HRPO (Horse-Radish Per Oxidase) conjugate was added and the plate is incubated at 37°C for one hour. • 10. The plate was washed with PBST. • 11. Colour development with OPD (orthophenylenediamine dihydrochloride) and hydrogen peroxide was done. • 12. OD (optical density) at (450nm reading - 620nm reading) was measured after incubation at 37°C for 15 minutes with Microplate ELISA Reader.
The breaker activity of the compounds were determined by the following formula: % Breaker activity =(OD450-620 Control - OD450-620 Test)/(OD450-620 Control)x 100 [formula] OD450-620Control= Absorbance of 20ng AGE-BSA after incubation at 37°C for 24 hours without test compound OD450-620Test= Absorbance of 20ng AGE-BSA after incubation at 37°C for 24 hours with required concentration of test compound

[2] = Free radical scavenging activity on ABTS radical cation (absorbance at 730nm); assay type: biochemical
Experimental: This method measures the relative ability of free radical scavenging substances to scavenge the ABTS ^.+ i.e. 2,2-Azino-bis-(3-ethyl benzo thiazoline-6-sulfonate) radical cation as compared to a standard amount of standard or free radical scavengers antioxidants. Incubation of ABTS with Peroxidase (metmyoglobin) and hydrogen peroxide results in the production of radical cation ABTS^.+ . This species is blue- green in colour and can be detected at 730nm. Antioxidants or free radical scavengers in the added sample that causes suppression of the color to a degree that is proportional to their concentration.
• A. Phosphate Citrate Buffer (pH 5.0): 48.5ml of 0.1M citric acid with sufficient 0.2M disodium hydrogen phosphate to produce 100 ml. • B. Phosphate Buffer Saline (PBS): Dissolve 40.0g of NaCl, 1.0g of KCI, 1.0g of KH2PO4 and 3.05g of Na2HPO4 in 1 litre milli-Q water. Dilute 200ml of above solution to 1 litre with milli-Q water (pH 7.4-7.6). • C. 3µM stock solution of Peroxidase was prepared in phosphate buffer saline pH 7.4(PBS). • D. 1.08 mM stock solution of Hydrogen peroxide was prepared in phosphate buffer saline pH 7.4 (PBS).
1 tablet (10mg) was dissolved in phosphate citrate buffer (pH 5.0).
5.0ml of ABTS stock solution was diluted with PBS to 20 ml.
320 µg of the enzyme was dissolved in 2.5 ml of PBS.
12µl of Hydrogen Peroxide (30%w/v) was diluted to 100ml with PBS.
0.1mM of stock solution of the drug was prepared which was serially diluted in PBS to get solutions of different concentrations.
To 18ml of ABTS stock solution, 100µl of Horseradish Peroxidase stock solution was added.
As soon as 1.5 ml of hydrogen peroxide solution was added to the above solution, blue-green colour of the ABTS radicals appeared. This solution was incubated at 30°C for 30 min.
980µl of ABTS radical stock solution was added to an eppendorf tube. To it was added 100µl of various PBS solution.
980µl of ABTS radical stock solutions were added to different eppendorf tubes. To it were added 100µl of various concentrations of drug solution.
The absorbance of control and test samples was recorded immediately at 730nm taking PBS as blank.
Calculation: The percent antioxidant activity was calculated according to the formula: % Antioxidant activity = [O.D of test sample/O.D of control*100]-100.

O=C(C[n+]1cccc(C(=O)NNC(=O)c2ccc[n+](CC(=O)c3ccccc3)c2)c1)c1ccccc1 [Compound 1, N, N'-bis [3-carbonyl-1-(2-phenyl-2-oxoethyl)-pyridinium] hydrazine dibromide]
% Breakage ([1]; 5 mM test compound): 13%

CC(=O)OCCOC(=O)c1ccc[n+](CC(=O)c2ccccc2)c1.[Br-] [Compound 16, 1-(2-phenyl-2-oxoethyl) -3-(2-(acetoxy)ethyloxycarbonyl) pyridinium bromide]
% Breakage ([1]; 10 mM test compound): 16%

CCOC(=O)C[n+]1cccc(C(=O)OCCOC(=O)c2ccccc2)c1.[Br-] [Compound 17, 1-(2-ethoxy-2-oxoethyl) -3-(2-(benzoyloxy)ethyloxycarbonyl) pyridinium bromide]
% Breakage ([1]; 10 mM test compound): 19%

O=C(C[n+]1cccc(C(=O)NCCOC(=O)c2ccccc2)c1)Nc1ccccc1.[Cl-] [Compound 23, 1-(2-phenylamino-2-oxoethyl)-3-((benzoyloxy)ethylaminocarbonyl) pyridinium chloride]
% Breakage ([1]; 10 mM test compound): 37% | % Breakage ([1]; 25 mM test compound): 90% | AGE breaking activity compared to PTB [1]: superior

O=C(NNC(=O)c1ccc[n+](CC(=O)c2ccco2)c1)c1ccc[n+](CC(=O)c2ccco2)c1 [Compound 32, N, N' - bis [3-carbonyl-1-(2-furan-2'-yl-2-oxoethyl)pyridinium] hydrazine dibromide]
% Breakage ([1]; 10 mM test compound): 14%

COCCNC(=O)c1ccc[n+](CC(=O)NC2CC2)c1.[Cl-] [Compound 40, 1-(2-cyclopropylamino-2-oxoethyl)-3-(2-methoxyethylaminocarbonyl)-pyridinium chloride]
% Breakage ([1]; 10 mM test compound): 12.38%

O=C(NNC(=O)c1cccnc1Cl)c1ccc[n+](CC(=O)c2cccs2)c1 [Compound 42, 1-(2-thien-2'yl-2-oxoethyl)-3-(2-(2-chloro-3-pyridoyl)hydrazinocarbonyl) -pyridinium chloride]
% Breakage ([1]; 10 mM test compound): 12.51%

CC(C)NC(=O)C[n+]1cccc(C(=O)NNS(C)(=O)=O)c1.[Cl-] [Compound 43, 1-(2-isopropylamino-2-oxoethyl)-3-(2-methylsulfonylhydrazinocarbonyl) -pyridinium chloride]
% Breakage ([1]; 10 mM test compound): 10.85%

COCCNC(=O)c1cc(Br)c[n+](CC(=O)c2cccs2)c1 [Compound 47, 1-(2-thien-2'-yl-2-oxoethyl)-3-((2-methoxyethyl)aminocarbonyl)-5-bromo pyridinium chloride]
% Breakage ([1]; 10 mM test compound): 32.38% | AGE breaking activity compared to PTB [1]: superior

Cc1ccc(C(=O)NNC(=O)c2ccc[n+](CC(=O)c3cccs3)c2)c[n+]1CC(=O)c1cccs1 [Compound 49, 1-[1-(2-thien-2'-yl-2-oxoethyl)-6-methyl-3-carbonylpyridinium]-2-[1-(2-Thien-2' -yl-2-oxoethyl)-3-carbonylpyridinium] hydrazine dichloride]
% Breakage ([1]; 2.5 mM test compound): 85.67% | AGE breaking activity compared to PTB [1]: superior | potency (AGE breaking activity compared to PTB) [1]: significantly much higher

CCOC(=O)C1CCCN1C(=O)C[n+]1cccc(C(=O)NNS(C)(=O)=O)c1.[Cl-] (centres unmarked) [Compound 52, 1-(2-(2-ethoxycarbonylpyrrolidin-1-yl)-2-oxoethyl)-3-(methanesulfonyl hydrazinocarbonyl) pyridinium chloride]
% Breakage ([1]; 10 mM test compound): 25.34%

CS(=O)(=O)NNC(=O)c1cc(Br)c[n+](CC(=O)c2cccs2)c1 [Compound 53, 1-(2-thien-2'-yl-2-oxoethyl)-3-(methanesulfonyl hydrazinocarbonyl)-5-bromo pyridinium bromide]
% Breakage ([1]; 2.5 mM test compound): 29.36%

Cc1ccc(C(=O)NNS(C)(=O)=O)c[n+]1CC(=O)c1cccs1 [Compound 57, 1-(2-thien-2'-yl-2-oxoethyl)-3-(methanesulfonyl hydrazinocarbonyl) -6-methyl pyridinium bromide]
% Breakage ([1]; 1 mM test compound): 77.69%

Cc1ccc(C(=O)C[n+]2cccc(C(=O)NNC(=O)c3ccc[n+](CC(=O)c4ccc(C)s4)c3)c2)s1 [Compound 58, N, N'-bis [3-carbonyl-1-(2-(5-methylthien-2-yl)-2-oxoethyl)pyridinium] hydrazine dichloride]
% Breakage ([1]; 10 mM test compound): 81.95%

CCOC(=O)C1CCCN1C(=O)C[n+]1cccc(C(=O)NNC(=O)c2ccc[n+](CC(=O)N3CCCC3C(=O)OCC)c2)c1 (centres unmarked) [Compound 59, N, N'-bis [3-carbonyl-1-(2-(2-ethoxycarbonyl pyrrolidin-1-yl)-2-oxoethyl)pyridinium] hydrazine dichloride]
% Breakage ([1]; 10 mM test compound): 20.31%

NC(=O)c1cc(C(=O)NNC(=O)c2ccc[n+](CC(=O)c3cccs3)c2)c[n+](CC(=O)c2cccs2)c1 [Compound 60, 1-[1-(2-thien-2'-yl-2-oxoethyl)-5-aminocarbonyl-3-carbonylpyridinium]-2-[1-(2-Thien-2'-yl-2-oxoethyl)-3-carbonylpyridinium] hydrazine dichloride]
% Breakage ([1]; 1 mM test compound): 95.36%

CCOC(=O)C1CSCN1C(=O)C[n+]1cccc(C(=O)NNS(C)(=O)=O)c1.[Cl-] (centres unmarked) [Compound 61, 1-(2-(4-carboethoxy-thiazolidin-3-yl)-2-oxoethyl) -3-(methanesulfonyl hydrazinocarbonyl) pyridinium chloride]
% Breakage ([1]; 10 mM test compound): 25.06%

O=C(NNC(=O)c1ccc[n+](CC(=O)c2ccc(Cl)s2)c1)c1ccc[n+](CC(=O)c2ccc(Cl)s2)c1 [Compound 62, N, N'-bis [3-carbonyl-1-(2-(5-chlorothien-2-yl)-2-oxoethyl)pyridinium] hydrazine dichloride]
% Breakage ([1]; 10 mM test compound): 78.41% | AGE breaking activity compared to PTB [1]: superior | potency (AGE breaking activity compared to PTB) [1]: significantly much higher

O=C(C[n+]1ccc(C(=O)NCCOC(=O)c2ccccc2)cc1)Nc1ccccc1.[Cl-] [Compound 66, 1-(2-phenylamino-2-oxoethyl)-4-[2-(benzoyloxy)ethylaminocarbonyl] pyridinium chloride]
% Breakage ([1]; 10 mM test compound): 19.07%

O=C=Nc1ccc[n+](CC(=O)c2ccc(Cl)cc2Cl)c1.[Br-] [Compound 82, 3-Carbonylamino-1-(2-(2,4-dichlorophenyl)-2-oxoethyl)-pyridinium bromide]
Relative Free Radical Scavenging Activity(%) on ABTS ([2]; 11.5µM): 26.0% | Relative Free Radical Scavenging Activity(%) on ABTS ([2]; 23.0µM): 44.3% | Relative Free Radical Scavenging Activity(%) on ABTS ([2]; 46.0µM): 62.7% | Relative Free Radical Scavenging Activity(%) on ABTS ([2]; 92.5µM): 75.5% | Relative Free Radical Scavenging Activity(%) on ABTS ([2]; 925µM): 100%

NC(=O)c1ccc[n+](CC(=O)c2cccs2)c1 [Compound 85, 3-Carbonylamino-1-(2-thien-2'-yl-2-oxoethyl)-pyridinium bromide]
% Breakage ([1]; 10 mM test compound): 3%

CCCCNC(=O)c1ccc[n+](CC(=O)c2ccc(Cl)cc2Cl)c1.[Br-] [Compound 97, 1-(2 - (2, 4 - Dichlorophenyl) - 2-oxoethyl) - 3-(n-butylamino-carbonyl) pyridinium bromide]
Relative Free Radical Scavenging Activity(%) on ABTS ([2]; 11.5µM): 16.5% | Relative Free Radical Scavenging Activity(%) on ABTS ([2]; 23.0µM): 27% | Relative Free Radical Scavenging Activity(%) on ABTS ([2]; 46.0µM): 37.8% | Relative Free Radical Scavenging Activity(%) on ABTS ([2]; 92.5µM): 44.5% | Relative Free Radical Scavenging Activity(%) on ABTS ([2]; 925µM): 97.8%

O=C(C[n+]1cccc(C(=O)c2ccccc2)c1)c1ccccc1.[Br-] [Compound 98, 1-(2-Phenyl-2-oxoethyl)-3-(1-phenyl-1-oxomethyl) pyridinium bromide]
Relative Free Radical Scavenging Activity(%) on ABTS ([2]; 11.5µM): 7.1% | Relative Free Radical Scavenging Activity(%) on ABTS ([2]; 23.0µM): 26.9% | Relative Free Radical Scavenging Activity(%) on ABTS ([2]; 46.0µM): 51.1% | Relative Free Radical Scavenging Activity(%) on ABTS ([2]; 92.5µM): 78.6% | Relative Free Radical Scavenging Activity(%) on ABTS ([2]; 925µM): 99.1%

NC(=O)c1cccnc1 [Niacinamide, reference compound]
Relative Free Radical Scavenging Activity(%) on ABTS ([2]; 11.5µM): 0.0% | Relative Free Radical Scavenging Activity(%) on ABTS ([2]; 23.0µM): 2.2% | Relative Free Radical Scavenging Activity(%) on ABTS ([2]; 46.0µM): 3.8% | Relative Free Radical Scavenging Activity(%) on ABTS ([2]; 92.5µM): 3.8% | Relative Free Radical Scavenging Activity(%) on ABTS ([2]; 925µM): 9.2%
